Results taken from US20250326743A1, “CRYSTAL FORMS OF TRIAZINE DIONE DERIVATIVE AND PREPARATION METHOD THEREFOR” (Jiangsu Hengrui Pharmaceuticals Co., Ltd., priority 2022, published 2025).

How the values were obtained:
Assay type in all cases: physicochemical
[1] = Influencing factor stability study (30 days, open flasks)
[2] = Long-term/accelerated stability study (6 months)
[3] = DVS (dynamic vapor sorption) hygroscopicity; conditions: for hygroscopic weight gain: DVS
Procedure: DVS refers to dynamic vapor sorption: The measurement was performed using SMS DVS Advantage; at 25° C., the humidity was changed as follows: 50%-95%-0%-95%-50%, in steps of 10% (5% for the last step) (specific humidity ranges are shown in corresponding patterns, and those listed here were used in most cases); the criterion was dm/dt being not greater than 0.002%.

[4] = Light exposure (4500 Lux), 5 days
[5] = Light exposure (4500 Lux), 10 days
[6] = Light exposure (4500 Lux), 30 days

For Cc1ccc(F)c([C@H](C)Nc2nc(=O)n(C3CCOCC3)c(=O)[nH]2)c1 [crystal form A, (S)-6-((1-(2-fluoro-5-methylphenyl)ethyl)amino)-3-(tetrahydro-2H-pyran-4-yl)-1,3,5-triazine-2,4(1H,3H)-dione], the Color and state ([1]; 40° C., 5 days) was “Off-white solid”, the Crystal form ([1]; 40° C., 5 days) was “No change” and the Purity % ([1]; 40° C., 5 days) was 99.7%. For the same compound, the Color and state ([1]; 40° C., 10 days) was “Off-white solid”, the Crystal form ([1]; 40° C., 10 days) was “No change” and the Purity % ([1]; 40° C., 10 days) was 99.7%. The Color and state ([1]; 40° C., 30 days) was “Off-white solid”, the Crystal form ([1]; 40° C., 30 days) was “No change” and the Purity % ([1]; 40° C., 30 days) was 99.7%. For the same compound, the Color and state ([1]; 60° C., 5 days) was “Off-white solid”, the Crystal form ([1]; 60° C., 5 days) was “No change” and the Purity % ([1]; 60° C., 5 days) was 99.7%. The Color and state ([1]; 60° C., 10 days) was “Off-white solid”, the Crystal form ([1]; 60° C., 10 days) was “No change” and the Purity % ([1]; 60° C., 10 days) was 99.7%. For the same compound, the Color and state ([1]; 60° C., 30 days) was “Off-white solid”, the Crystal form ([1]; 60° C., 30 days) was “No change” and the Purity % ([1]; 60° C., 30 days) was 99.7%. The Color and state ([1]; 75% RH, 5 days) was “Off-white solid”, the Crystal form ([1]; 75% RH, 5 days) was “No change” and the Purity % ([1]; 75% RH, 5 days) was 99.7%. The Color and state ([1]; 75% RH, 10 days) was “Off-white solid”, the Crystal form ([1]; 75% RH, 10 days) was “No change” and the Purity % ([1]; 75% RH, 10 days) was 99.7%. For the same compound, the Color and state ([1]; 75% RH, 30 days) was “Off-white solid”, the Crystal form ([1]; 75% RH, 30 days) was “No change” and the Purity % ([1]; 75% RH, 30 days) was 99.7%. For the same compound, the Color and state ([1]; 92.5% RH, 5 days) was “Off-white solid”, the Crystal form ([1]; 92.5% RH, 5 days) was “No change” and the Purity % ([1]; 92.5% RH, 5 days) was 99.7%. For the same compound, the Color and state ([1]; 92.5% RH, 10 days) was “Off-white solid”, the Crystal form ([1]; 92.5% RH, 10 days) was “No change” and the Purity % ([1]; 92.5% RH, 10 days) was 99.7%. The Color and state ([1]; 92.5% RH, 30 days) was “Off-white solid”, the Crystal form ([1]; 92.5% RH, 30 days) was “No change” and the Purity % ([1]; 92.5% RH, 30 days) was 99.7%. The Color and state ([1]; Initial, 0 days) was “Off-white solid”, the Purity % ([1]; Initial, 0 days) was 99.7% and the Color and state [1, 4] was “Off-white solid”. The Crystal form [1, 4] was “No change”, the Purity % [1, 4] was 99.7% and the Color and state [1, 5] was “Off-white solid”. For the same compound, the Crystal form [1, 5] was “No change”, the Purity % [1, 5] was 99.7% and the Color and state [1, 6] was “Off-white solid”. The Crystal form [1, 6] was “No change”, the Purity % [1, 6] was 99.7% and the “physical and chemical stability (conclusion)” value ([1]; light exposure, 40° C. and 60° C., 75% RH and 92.5% RH, 30 days) was “both good physical stability and good chemical stability”. For the same compound, the “physical and chemical stability (conclusion)” value ([2]; 25° C. with 60% RH and 40° C. with 75% RH, 6 months) was “both good physical stability and good chemical stability”, the Crystal form ([2]; 25° C./60% RH, 1 month) was “No change” and the “Purity %” value ([2]; 25° C./60% RH, 1 month) was 99.7%. The Crystal form ([2]; 25° C./60% RH, 2 months) was “No change”, the “Purity %” value ([2]; 25° C./60% RH, 2 months) was 99.7% and the Crystal form ([2]; 25° C./60% RH, 3 months) was “No change”. The “Purity %” value ([2]; 25° C./60% RH, 3 months) was 99.7%, the Crystal form ([2]; 25° C./60% RH, 6 months) was “No change” and the “Purity %” value ([2]; 25° C./60% RH, 6 months) was 99.7%. The Crystal form ([2]; 40° C./75% RH, 1 month) was “No change”, the “Purity %” value ([2]; 40° C./75% RH, 1 month) was 99.7% and the Crystal form ([2]; 40° C./75% RH, 2 months) was “No change”. The “Purity %” value ([2]; 40° C./75% RH, 2 months) was 99.7%, the Crystal form ([2]; 40° C./75% RH, 3 months) was “No change” and the “Purity %” value ([2]; 40° C./75% RH, 3 months) was 99.7%. The Crystal form ([2]; 40° C./75% RH, 6 months) was “No change”, the “Purity %” value ([2]; 40° C./75% RH, 6 months) was 99.8% and the “Purity %” value ([2]; Initial) was 99.7%. The hygroscopic weight gain ([3]; accelerated conditions, 70% RH) was “about 0.15%”, the hygroscopic weight gain ([3]; extreme conditions, 90% RH) was “about 0.24%” and the hygroscopic weight gain ([3]; normal storage conditions, 60% RH) was “about 0.12%”. For the same compound, the “crystal form after DVS testing” value ([3]; after DVS testing) was “did not change”.
